These results are taken from patent publication US20080207614A1, “QUINAZOLINE DERIVATIVES FOR THE TREATMENT AND PREVENTION OF DIABETES AND OBESITY” (SK CHEMICALS CO., LTD., priority 2004, published 2008).

For this assay, the system named is C2C12 muscle cells. Kind of assay: Analysis of glucose absorption (2-deoxyglucose) in differentiated C2C12 muscle cells. As to conditions: test materials 10 μM, times relative to control group. The class given is cell-based. The method, then:
C2C12 muscle cells were cultured in DMEM (Dulbecco's modified Eagle's medium) containing 10% bovine calf serum. When the cell density increased to about 85 to 90%, the culture medium was replaced with 1% bovine calf serum and cell differentiation was induced for 6 days. Completely differentiated cells were cultured for 3 hours with Krebs-Ringer buffer (KRB) containing 5 mM glucose. The test materials were added at a concentration of 10 μM. 30 minutes later, 0.2 μCi 2-deoxyglucose was added. KRB was removed 20 minutes later and the cells were washed for 3 times with cold PBS. The cells were lysed with 0.5N NaOH and counted using a radioactive counter.
Turning to `c1ccc(CCNc2nc(Cc3ccccc3)nc3ccccc23)cc1` [Compound 215, (2-Benzylquinazolino-4-yl)-phenethylamine], the Glucose absorption worked out at 2.2.

Compound `c1ccc(CNc2nc(-c3ccccn3)nc3ccccc23)cc1` [Compound 223, Benzyl-(2-pyridino-2-ylquinazolino-4-yl)-amine] came in with a Glucose absorption of 1.7. `Clc1ccc(Nc2nc(-c3ccccc3)nc3ccccc23)cc1` [Compound 162, (4-Chlorophenyl)-(2-phenylquinazolino-4-yl)-amine] had a Glucose absorption of 1.3.

Take `COc1cccc(CCNc2nc(-c3ccccc3)nc3ccccc23)c1` [Compound 120, [2-(3-Methoxyphenyl)-ethyl]-(2-phenylquinazolino-4-yl)-amine]: the Glucose absorption is 1.4. `C=CCNc1nc(-c2ccccc2)nc2ccccc12` [Compound 97, Allyl-(2-phenylquinazolino-4-yl)-amine] registered a Glucose absorption of 1.0. `CC(C)(C)c1nc(NCc2cccc3ccccc23)c2ccccc2n1` [Compound 193, (2-tert-Butylquinazolino-4-yl)-naphthaleno-1-ylmethylamine] registered a Glucose absorption of 1.3. Turning to `COc1ccc(OC)c(CCNc2nc(-c3ccccc3)nc3ccccc23)c1` [Compound 122, [2-(2,5-Dimethoxyphenyl)-ethyl]-(2-phenylquinazolino-4-yl)-amine], the Glucose absorption came out at 1.3.

`c1ccc2c(CNc3nc(C4CCCCC4)nc4ccccc34)cccc2c1` [Compound 205, (2-Cyclohexylquinazolino-4-yl)-naphthaleno-1-ylmethylamine] returned a Glucose absorption of 1.3. Compound `Fc1cccc(CCNc2nc(-c3ccc(Cl)cc3)nc3ccccc23)c1` [Compound 268, [2-(4-Chlorophenyl)-quinazolino-4-yl]-[2-(3-fluorophenyl)-ethyl]-amine] gave a Glucose absorption of 1.1. Then `COc1cccc(CNc2nc(Cc3ccccc3)nc3ccccc23)c1` [Compound 212, (2-Benzylquinazolino-4-yl)-(3-methoxybenzyl)-amine], with 2.0; and `COc1ccc(Nc2nc(-c3ccccc3)nc3ccccc23)cc1` [Compound 70, (4-Methoxyphenyl)-(2-phenylquinazolino-4-yl)-amine], with 1.0; and `OCCOCCNc1nc(-c2ccc(Cl)cc2)nc2ccccc12` [Compound 269, 2-{2-[2-(4-Chlorophenyl)-quinazolino-4-ylamino]-ethoxy}-ethanol], with 1.2. `COc1cccc(CNc2nc(-c3ccncc3)nc3ccccc23)c1` [Compound 248, (3-Methoxybenzyl)-(2-pyridino-4-ylquinazolino-4-yl)-amine] showed a Glucose absorption of 1.4. `c1ccc(CCCCNc2nc(-c3ccncc3)nc3ccccc23)cc1` [Compound 252, (4-Phenylbutyl)-(2-pyridino-4-ylquinazolino-4-yl)-amine] had a Glucose absorption of 0.9. The compound `CC(C)(C)c1nc(NCc2ccc3c(c2)OCO3)c2ccccc2n1` [Compound 194, Benzo[1,3]dioxol-5-ylmethyl-(2-tert-butylquinazolino-4-yl)-amine] yielded a Glucose absorption of 1.4. The result for `c1ccc(CCCCNc2nc(-c3ccccc3)nc3ccccc23)cc1` [Compound 52, (4-Phenylbutyl)-(2-phenylquinazolino-4-yl)-amine] reads 1.3; that for `COc1cccc(CNc2nc(C(C)(C)C)nc3ccccc23)c1` [Compound 188, (2-tert-Butylquinazolino-4-yl)-(3-methoxybenzyl)-amine], 1.0. The result for `c1ccc(-c2nc(NCC3CCCC3)c3ccccc3n2)cc1` [Compound 159, Cyclopentylmethyl-(2-phenylquinazolino-4-yl)-amine] reads 2.6; that for `c1ccc2c(CNc3nc(-c4ccncc4)nc4ccccc34)cccc2c1` [Compound 253, Naphthaleno-1-ylmethyl-(2-pyridino-4-ylquinazolino-4-yl)-amine], 1.3; that for `Clc1ccc(CCNc2nc(-c3ccccc3)nc3ccccc23)c(Cl)c1` [Compound 127, [2-(2,4-Dichlorophenyl)-ethyl]-(2-phenylquinazolino-4-yl)-amine], 1.4.

`COc1cccc(CNc2nc(-c3cccnc3)nc3ccccc23)c1` [Compound 236, (3-Methoxybenzyl)-(2-pyridino-3-ylquinazolino-4-yl)-amine]: the Glucose absorption is listed as 1.2.

As to `c1ccc(CCNc2nc(-c3ccccc3)nc3ccccc23)cc1` [Compound 68, Phenethyl-(2-phenylquinazolino-4-yl)-amine], the Glucose absorption was found to be 1.3. Then `c1ccc(-c2nc(NCc3cccc4ccccc34)c3ccccc3n2)cc1` [Compound 57, Naphthaleno-1-ylmethyl-(2-phenylquinazolino-4-yl)-amine], with 1.0; and `CCCCNc1nc(SCC)nc2ccccc12` [Compound 19, Butyl-(2-ethylsulfanylquinazolino-4-yl)-amine], with 1.4; and `c1ccc(CCCCNc2nc(-c3cccnc3)nc3ccccc23)cc1` [Compound 240, (4-Phenylbutyl)-(2-pyridino-3-ylquinazolino-4-yl)-amine], with 1.0.

Turning to `Cc1cc(C)c(Nc2nc(-c3ccccc3)nc3ccccc23)c(C)c1` [Compound 78, (2-Phenylquinazolino-4-yl)-(2,4,6-trimethyl-phenyl)-amine], the Glucose absorption was found to be 1.4. The compound `CCSc1nc(NCc2cc(OC)cc(OC)c2)c2ccccc2n1` [Compound 38, (3,5-Dimethoxybenzyl)-(2-ethylsulfanylquinazolino-4-yl)-amine] showed a Glucose absorption of 1.5. Regarding `Fc1cccc(CNc2nc(-c3cccnc3)nc3ccccc23)c1` [Compound 243, (3-Fluorobenzyl)-(2-pyridino-3-ylquinazolino-4-yl)-amine], the Glucose absorption worked out at 1.4.

`COc1cccc(CNc2nc(-c3ccc(Cl)cc3)nc3ccccc23)c1` [Compound 260, [2-(4-chlorophenyl)-quinazolino-4-yl]-(3-methoxybenzyl)-amine] gave a Glucose absorption of 1.4.

Compound `CC(C)(C)c1nc(NCCOCCO)c2ccccc2n1` [Compound 197, 2-[2-(2-tert-Butylquinazolino-4-ylamino)-ethoxy]-ethanol] came in with a Glucose absorption of 1.3. `Fc1cccc(CNc2nc(-c3ccc(Cl)cc3)nc3ccccc23)c1` [Compound 267, [2-(4-Chlorophenyl)-quinazolino-4-yl]-(3-fluorobenzyl)-amine] had a Glucose absorption of 1.0. The compound `OCCNc1nc(-c2ccncc2)nc2ccccc12` [Compound 258, 2-(2-Pyridino-4-ylquinazolino-4-ylamino)-ethanol] registered a Glucose absorption of 1.3. `COc1ccc(CNc2nc(Cc3ccccc3)nc3ccccc23)cc1OC` [Compound 331, (2-Benzylquinazolino-4-yl)-(3,4-dimethoxybenzyl)-amine] registered a Glucose absorption of 1.2. Turning to `c1ccc(-c2nc(NC3CCCCC3)c3ccccc3n2)cc1` [Compound 51, Cyclohexyl-(2-phenylquinazolino-4-yl)-amine], the Glucose absorption was found to be 1.0. Turning to `Cc1ccc(Nc2nc(-c3ccccc3)nc3ccccc23)c(C)c1` [Compound 73, (2,4-Dimethyl-phenyl)-(2-phenylquinazolino-4-yl)-amine], the Glucose absorption is on record as 1.0.
